# Results reported in US9238034B2, “FN14 antagonists and therapeutic uses thereof” (THE TRANSLATIONAL GENOMICS RESEARCH INSTITUTE, priority 2013, dated 2016).
# T1: Fn14 (Homo sapiens, UniProt Q9NP84)
# T1 construct: the human Fc fragment-tagged Fn14 extracellular domain (R&D Systems) was captured
# T1 sequence (Q9NP84 28-80 limits assumed): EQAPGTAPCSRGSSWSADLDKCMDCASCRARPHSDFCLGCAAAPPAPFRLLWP
# T2: TWEAK (Homo sapiens, UniProt O43508)
# T2 sequence (O43508 94-249 limits assumed): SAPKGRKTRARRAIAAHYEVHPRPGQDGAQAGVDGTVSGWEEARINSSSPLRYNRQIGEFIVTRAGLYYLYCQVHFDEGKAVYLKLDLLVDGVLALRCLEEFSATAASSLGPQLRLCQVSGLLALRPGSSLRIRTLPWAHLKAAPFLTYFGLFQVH
# Columns and labels:
# [1] = test system: TWEAK-Fn14 signaling pathway; assay: TWEAK induced Fn14-NF-κB Luc assay, optimized 384-well HTS format; type: cell-based, human; settings: 1000 cells/well, 40 ng/mL TWEAK 8 hr, 1 hr pre-incubation
# Source text: Human embryonic kidney cells (HEK293) express low levels of the Fn14 receptor. We developed a cell-based assay for the Fn14-TWEAK pathway signaling events using HEK293 cells that stably co-expresses high levels of full length Fn14 receptor and a firefly luciferase reporter driven by NF-KB-response elements (Fn14-NF-KB-Luc).
# We optimized HEK293 Fn14-NF-KB Luc cell line for HTS by testing TWEAK-stimulated Luc-reporting as a function of growth medium, TWEAK concentration, induction time, assay duration, cell density, and DMSO concentration. For example, we seeded HEK293 Fn14-NF-KB-Luc and control cells (HEK293 NFKB-Luc) into a 96-well plate at a density of 10,000 cells/well, in DMEM or Opti-MEM® (Reduced serum media, protein concentration 15 μg/mL) and incubated at 37 C for 24 or 48 h. We then induced them with various concentrations of TWEAK in buffer or buffer alone (PBS+1 mg/mL BSA) for 5 hr and then measured firefly luciferase levels by chemiluminescence (Bright-Glo™ Promega). […] These initial conditions formed the basis for transfer of the assay into a 384-well format and further optimization with respect to cell seeding density, induction time, and TWEAK concentration.
# We achieved the same conclusion from both 96-well and 384-well format that signal-to-background and fold-inductions are increased with increasing TWEAK concentration, peaking between 40-80 ng/mL and decreased at 100 ng/mL (FIGS. 20A and 20B). […] These conditions were further refined with respect to cell density (500-2500 cells per well), induction time (4-8 hr), and two TWEAK concentrations over a series of experiments in 384-well formats.
# In the majority of seeding density conditions and two different TWEAK concentrations, the assay performance improved with increasing TWEAK induction time. At 8 hours of TWEAK stimulation, the fold induction (S/B) and Z′ factor was approximately 8-fold and 0.8, respectively, and the average % CV was 6.8%. […]
# TNFα induction of NF-κB = assay: TNFα induced counterscreen assay, HEK293 NF-κB Luc cells; type: cell-based, human
# Source text: TNFα induction of the HEK293 NF-κB cell line was used as a counterscreen. […] Furthermore, we tested the two control compounds, LY294002 and BAY11-7082, in a drug dose-response format. […] We anticipate that compounds that directly affect Fn14 oligomerization, TWEAK ligation, or signaling proteins specific to the TWEAK-Fn14 signaling pathway that drive NF-κB activation will show minimal activity in the TNFα counterscreen assay. In order to eliminate the false positive hits from the pilot screen, we further performed the counterscreen by testing 35 “positives” from the Prestwick collection against HEK293 NF-KB-Luc control cell lines induced by TNFα. From this experiment we eliminated 28 compounds that inhibited luciferase expression after TNFα induction of HEK293 NF-KB Luc cells. Thus, after counterscreen only 7 compounds appeared to be specific inhibitors to the TWEAK-Fn14 signaling pathway. […] Overall, through our pilot primary screen and counterscreen, our hit rate approached 0.6% for this targeted collection. We expect a random collection to yield a lower hit-rate, which will be further reduced through the chemoinformatic filtering for luciferase false positive artifacts. Furthermore, secondary assays will be critical as cytotoxic false positives appeared to be about 80% from our pilot screen. […]
# Fn14 = target: T1, Fn14; assay: Surface Plasmon Resonance assay, Fn14-Fc sensor surface; type: binding; settings: SPR, 0 to 50 μM
# Protocol: (§1) Surface Plasmon Resonance (SPR) Assay. The binding affinity of at least one of the compounds (e.g., L524-0366) to TWEAK and Fn14-Fx was determined using a BIAcore T100 optical biosensor (GE Healthcare) at 25 degrees Celsius at the Arizona Proteomics Consortium. Recombinant human TWEAK (20 μg/mL in 10 mM HEPES pH 7.4, 150 mM NaCl, 3 mM EDTA, 0.05% Tween 20) or recombinant human Fn14-Fc (20 μg/mL in 10 mM NaOAc pH 4.0) were covalently coupled to separate flow cells on a BIAcore CM5 sensor chip using standard amine coupling chemistry as per manufacturer's protocol. Final immobilization levels were 6000 Response Units (RU) for TWEAK and 13,000 RU for FN14-Fc. The first flow path of the chip was treated with the same coupling and blocking reagents without protein and was used as a reference for each binding cycle. Functionality of the TWEAK and the Fn14-Fc sensor surfaces were verified by injecting Fn14-Fc and TWEAK over them respectively. Serial dilutions of L524-0366 or cycloheximide (control) from 0 to 50 μM were made in running buffer (10 mM HEPES pH 7.4, 150 mM NaCl, 3 mM EDTA, 1% DMSO). […] Equilibrium dissociation constants for the small molecules were calculated by fitting the double reference subtracted data to Req=((CRmax)/(KD+C))+RI, where RI is the bulk refractive index contribution.
# TWEAK = target: T2, TWEAK; assay: Surface Plasmon Resonance assay, TWEAK sensor surface; type: binding; settings: SPR, 0 to 50 μM
# Protocol: as §1
# Fn14 signaling [2] = assay: NF-κB luciferase reporter assay with sTWEAK variants, HEK293 NF-κB luciferase cells; type: cell-based, human; settings: 5 hr
# Protocol: (§2) NF-κB luciferase reporter Assay. The capacity of sTWEAK or sTWEAK variants to activate Fn14 signaling was evaluated using engineered reporter cell lines that express luciferase upon NF-κB activation. Two reporter cell lines were utilized for these experiments. HEK293 NF-κB luciferase (courtesy of Dr. Jeff Winkles) were generated by transfecting HEK293 cells with a reporter plasmid containing 5 copies of a consensus NF-κB binding site upstream of a minimal CMV promoter driving expression of firefly luciferase. The second cell line, designated HEK293 NF-κB luciferase Fn14 FL, was generated by stably transfecting the HEK293 NF-κB luciferase cell line with full length Fn14. To assay the binding of sTWEAK or sTWEAK variants to Fn14, reporter cells were seeded in tissue culture treated white 96-well plates at 1×10^4 cells/well in 80 μL Opti-MEM media (Invitrogen) and incubated for 48 hr at 37° C. After 48 hr incubation, 20 μL of 5× purified recombinant TWEAK (Peprotech Inc.; 150 ng/mL) in 1 mg/mL BSA in PBS was added to each well and incubated for 5 hr at 37° C. as positive control. Similarly, equivalent amounts of sTWEAK or sTWEAK variant prepared via IVTTas determined using ELISA assay described above was added in 20 μl. […] At the end of 5 hr incubation, the luminescent signal was determined using Bright-Glo assay kit (Promega, Madison, Wis.) according to the manufacturer's instructions.
# Fn14 signaling [3] = assay: NF-κB luciferase reporter assay with sTWEAK variants, HEK293 NF-κB luciferase cells overexpressing full length Fn14; type: cell-based, human; settings: HEK293 NF-κB luciferase cells stably overexpressing full length Fn14, 5 hr
# Protocol: as §2
Molecule,effect on TWEAK induced Fn14-NF-κB Luc signal [1],luciferase expression less than cells stimulated with sTWEAK (Fn14 signaling [2]) [%],induction of luciferase expression less relative to cells stimulated with sTWEAK (Fn14 signaling [3]) [%],also measured
CC(C(=O)O)c1ccc(N2Cc3ccccc3C2=O)cc1 (centres unmarked) [Indoprofen],drug sensitivity in a dose-dependent manner,,,"effect in NF-KB Luc cells induced with TNFα (TNFα induction of NF-κB; 10 μM, TNFα 40 ng/mL for 8 hours): no significant effect"
Cc1ccc(S(=O)(=O)/C=C/C#N)cc1 [BAY11-7082],dose-dependent manner,,,"drug inhibition of TNFα activation, Fn14 versus control cell lines (TNFα induction of NF-κB; drug dose-response format, 40 ng/ml TNFα): no significant difference"
"C[C@@H]1C[C@H]2[C@@H]3CCC4=CC(=O)C=C[C@]4(C)[C@@]3(F)[C@@H](O)C[C@]2(C)[C@@]1(O)C(=O)CO [Dexamethasone, dexamethasone]",no effect,,,
"C[C@@H]1C[C@@H]([C@H](O)CC2CC(=O)NC(=O)C2)C(=O)[C@@H](C)C1 [cycloheximide, reference compound]",,,,binding to Fn14 (Fn14): did not show significant binding; binding to TWEAK (TWEAK): did not show significant binding
"sTWEAK Y176A: soluble form of TWEAK (amino acids K97-H249) with Y176A substitution, made by IVTT (protein, UniProt O43508 97-249, looked up, variant Y176A) KGRKTRARRAIAAHYEVHPRPGQDGAQAGVDGTVSGWEEARINSSSPLRYNRQIGEFIVTRAGLYYLYCQVHFDEGKAVALKLDLLVDGVLALRCLEEFSATAASSLGPQLRLCQVSGLLALRPGSSLRIRTLPWAHLKAAPFLTYFGLFQVH",,87,98,
"sTWEAK Y176F: soluble form of TWEAK (amino acids K97-H249) with Y176F substitution, made by IVTT (protein, UniProt O43508 97-249, looked up, variant Y176F) KGRKTRARRAIAAHYEVHPRPGQDGAQAGVDGTVSGWEEARINSSSPLRYNRQIGEFIVTRAGLYYLYCQVHFDEGKAVFLKLDLLVDGVLALRCLEEFSATAASSLGPQLRLCQVSGLLALRPGSSLRIRTLPWAHLKAAPFLTYFGLFQVH",,100,98,
